Reference: patent publication US20240246945A1, “NOVEL COMPOUND FOR CROP PROTECTANT” (LG CHEM, LTD., priority 2010, published 2024)

tested on: Myzus persicae (Sulzer); experiment: Insecticidal Activity Test 1 against Myzus persicae (Sulzer), foliar spray on potted peppers, approximately 5 ppm; format: in vivo; details: in Capsicum, 120 h, approximately 5 ppm drug solution in water, counted on day 5 after spraying, read-out: mortality rate rating
Source text: Insecticidal Activity Test 1 Against Myzus persicae (Sulzer)
(§1) Peppers were planted in plastic pots with a diameter of 8 cm and a height of 8 cm, Myzus persicae (Sulzer) was reproduced therein, and then the number of Myzus persicae (Sulzer) in each pot was investigated. Some of the compounds prepared in the examples were selected, the compound was dispersed in water to be diluted to approximately 5 ppm, thereby preparing a drug solution.
The drug solution was sprayed onto the foliage of the peppers planted in the pots using a hand sprayer and air-dried, and the pots were stored in a green house.
(§2) On day 5 after the drug spraying, the number of Myzus persicae (Sulzer) parasitic on each pepper was counted, a mortality rate was calculated from the following formula, and the rating of each compound was investigated.
(§3) [formula] • A rating: 90% to 100% mortality • B rating: 80% or more and less than 90% mortality • C rating: less than 80% mortality

Q: CCN(C(=O)c1cnc(-c2noc(C)n2)n1C)c1cccnc1 [Ia-1-1-1, N-ethyl-1-methyl-2-(5-methyl-1,2,4-oxadiazol-3-yl)-N-(pyridin-3-yl)-1H-imidazole-5-carboxamide] was tested. Which mortality at 5 µg/mL did it give?
A: 90 to 100%

Q: Which mortality at 5 µg/mL does the source give for CCc1nc(-c2ncc(C(=O)N(CC)c3cccnc3)n2C)no1 [Ia-1-1-8, N-ethyl-2-(5-ethyl-1,2,4-oxadiazol-3-yl)-1-methyl-N-(pyridin-3-yl)-1H-imidazole-5-carboxamide] here?
A: 90 to 100%

Q: How did the mortality at 5 µg/mL turn out when CCN(C(=O)c1cnc(-c2noc(C3CC3)n2)n1C)c1cccnc1 [Ia-1-1-12, 2-(5-cyclopropyl-1,2,4-oxadiazol-3-yl)-N-ethyl-1-methyl-N-(pyridin-3-yl)-1H-imidazole-5-carboxamide] was run?
A: 90 to 100%

Q: With CCN(C(=O)c1cnc(-c2noc(C3CCOCC3)n2)n1C)c1cccnc1 [Ia-1-1-25, N-ethyl-1-methyl-N-(pyridin-3-yl)-2-(5-(tetrahydro-2H-pyran-4-yl)-1,2,4-oxadiazol-3-yl)-1H-imidazole-5-carboxamide] as the compound, how does the mortality at 5 µg/mL read?
A: 90 to 100%

Q: For CCN(C(=O)c1cnc(-c2noc(N3CCCCC3)n2)n1C)c1cccnc1 [Ia-1-1-26, N-ethyl-1-methyl-2-(5-(piperidin-1-yl)-1,2,4-oxadiazol-3-yl)-N-(pyridin-3-yl)-1H-imidazole-5-carboxamide], which mortality at 5 µg/mL is on record?
A: 90 to 100%

Q: CCN(C(=O)c1cnc(-c2noc(N3CCCC3)n2)n1C)c1cccnc1 [Ia-1-1-27, N-ethyl-1-methyl-N-(pyridin-3-yl)-2-(5-(pyrrolidin-1-yl)-1,2,4-oxadiazol-3-yl)-1H-imidazole-5-carboxamide] was tested. Which mortality at 5 µg/mL did it give?
A: 90 to 100%

Q: How did the mortality at 5 µg/mL turn out when CCN(C(=O)c1cnc(-c2noc(N(C)C)n2)n1C)c1cccnc1 [Ia-1-1-36, 2-(5-(dimethylamino)-1,2,4-oxadiazol-3-yl)-N-ethyl-1-methyl-N-(pyridin-3-yl)-1H-imidazole-5-carboxamide] was run?
A: 90 to 100%

tested on: Myzus persicae (Sulzer); experiment: Insecticidal Activity Test 2 against Myzus persicae (Sulzer), foliar spray on potted peppers, approximately 25 ppm; format: in vivo; details: in Capsicum, 120 h, approximately 25 ppm drug solution in water, counted on day 5 after spraying, read-out: mortality rate rating
Source text: Insecticidal Activity Test 2 Against Myzus persicae (Sulzer)
as §1, with “25” for “5”
The drug solution was sprayed onto the foliage of the peppers planted in the pots and air-dried, and the pots were stored in a green house.
as §2, §3

Q: CCN(C(=O)c1cnc(-c2noc(C(F)F)n2)n1C)c1cccnc1 [Ia-1-1-2, 2-(5-(difluoromethyl)-1,2,4-oxadiazol-3-yl)-N-ethyl-1-methyl-N-(pyridin-3-yl)-1H-imidazole-5-carboxamide] was tested. Which mortality at 25 µg/mL did it give?
A: 90 to 100%

Q: CCN(C(=O)c1cnc(-c2noc(C(C)(C)C)n2)n1C)c1cccnc1 [Ia-1-1-5, 2-(5-(tert-butyl)-1,2,4-oxadiazol-3-yl)-N-ethyl-1-methyl-N-(pyridin-3-yl)-1H-imidazole-5-carboxamide] was tested. Which mortality at 25 µg/mL did it give?
A: 90 to 100%

Q: CCN(C(=O)c1cnc(-c2noc(C(C)C)n2)n1C)c1cccnc1 [Ia-1-1-6, N-ethyl-2-(5-isopropyl-1,2,4-oxadiazol-3-yl)-1-methyl-N-(pyridin-3-yl)-1H-imidazole-5-carboxamide] was tested. Which mortality at 25 µg/mL did it give?
A: 90 to 100%

Q: With CCCc1nc(-c2ncc(C(=O)N(CC)c3cccnc3)n2C)no1 [Ia-1-1-7, N-ethyl-1-methyl-2-(5-propyl-1,2,4-oxadiazol-3-yl)-N-(pyridin-3-yl)-1H-imidazole-5-carboxamide] as the compound, how does the mortality at 25 µg/mL read?
A: 90 to 100%

Q: CCN(C(=O)c1cnc(-c2noc(CC3CC3)n2)n1C)c1cccnc1 [Ia-1-1-16, 2-(5-(cyclopropylmethyl)-1,2,4-oxadiazol-3-yl)-N-ethyl-1-methyl-N-(pyridin-3-yl)-1H-imidazole-5-carboxamide] was tested. Which mortality at 25 µg/mL did it give?
A: 90 to 100%

Q: For CCN(C(=O)c1cnc(-c2noc(-c3ccccc3)n2)n1C)c1cccnc1 [Ia-1-1-21, N-ethyl-1-methyl-2-(5-phenyl-1,2,4-oxadiazol-3-yl)-N-(pyridin-3-yl)-1H-imidazole-5-carboxamide], which mortality at 25 µg/mL is on record?
A: 90 to 100%

Q: How did the mortality at 25 µg/mL turn out when CCN(C(=O)c1cnc(-c2noc(-c3cocn3)n2)n1C)c1cccnc1 [Ia-1-1-22, N-ethyl-1-methyl-2-(5-(oxazol-4-yl)-1,2,4-oxadiazol-3-yl)-N-(pyridin-3-yl)-1H-imidazole-5-carboxamide] was run?
A: 90 to 100%

Q: CCN(C(=O)c1cnc(-c2noc(-c3cnco3)n2)n1C)c1cccnc1 [Ia-1-1-23, N-ethyl-1-methyl-2-(5-(oxazol-5-yl)-1,2,4-oxadiazol-3-yl)-N-(pyridin-3-yl)-1H-imidazole-5-carboxamide] was tested. Which mortality at 25 µg/mL did it give?
A: 90 to 100%

Q: For CCN(C(=O)c1cnc(-c2noc(-c3ccccc3F)n2)n1C)c1cccnc1 [Ia-1-1-24, N-ethyl-1-methyl-2-(5-(2-fluorophenyl)-1,2,4-oxadiazol-3-yl)-N-(pyridin-3-yl)-1H-imidazole-5-carboxamide], which mortality at 25 µg/mL is on record?
A: 90 to 100%

Q: Which mortality at 25 µg/mL does the source give for CCN(C(=O)c1cnc(-c2noc(-c3cccnc3)n2)n1C)c1cccnc1 [Ia-1-1-30, N-ethyl-1-methyl-N-(pyridin-3-yl)-2-(5-(pyridin-3-yl)-1,2,4-oxadiazol-3-yl)-1H-imidazole-5-carboxamide] here?
A: 90 to 100%

Q: How did the mortality at 25 µg/mL turn out when CCN(C(=O)c1cnc(-c2noc(-c3ccncc3)n2)n1C)c1cccnc1 [Ia-1-1-31, N-ethyl-1-methyl-N-(pyridin-3-yl)-2-(5-(pyridin-4-yl)-1,2,4-oxadiazol-3-yl)-1H-imidazole-5-carboxamide] was run?
A: 90 to 100%

Q: For CCN(C(=O)c1cnc(-c2noc(NC(C)C)n2)n1C)c1cccnc1 [Ia-1-1-33, N-ethyl-2-(5-(isopropylamino)-1,2,4-oxadiazol-3-yl)-1-methyl-N-(pyridin-3-yl)-1H-imidazole-5-carboxamide], which mortality at 25 µg/mL is on record?
A: 90 to 100%

Q: How did the mortality at 25 µg/mL turn out when CCNc1nc(-c2ncc(C(=O)N(CC)c3cccnc3)n2C)no1 [Ia-1-1-35, N-ethyl-2-(5-(ethylamino)-1,2,4-oxadiazol-3-yl)-1-methyl-N-(pyridin-3-yl)-1H-imidazole-5-carboxamide] was run?
A: 90 to 100%

Q: CCN(C(=O)c1cnc(-c2noc(N3CCOCC3)n2)n1C)c1cccnc1 [Ia-1-1-37, N-ethyl-1-methyl-2-(5-morpholino-1,2,4-oxadiazol-3-yl)-N-(pyridin-3-yl)-1H-imidazole-5-carboxamide] was tested. Which mortality at 25 µg/mL did it give?
A: 90 to 100%

Q: Which mortality at 25 µg/mL does the source give for CCN(C(=O)c1cnc(-c2noc(N(C(C)=O)C(C)C)n2)n1C)c1cccnc1 [Ia-1-1-38, N-ethyl-2-(5-(N-isopropylacetamido)-1,2,4-oxadiazol-3-yl)-1-methyl-N-(pyridin-3-yl)-1H-imidazole-5-carboxamide] here?
A: 90 to 100%

Q: With CCN(C(=O)c1cnc(C2=NOC(C)(C)N2C(=O)C2CC2)n1C)c1cccnc1 [Ia-1-4-3, 2-(4-(cyclopropanecarbonyl)-5,5-dimethyl-4,5-dihydro-1,2,4-oxadiazol-3-yl)-N-ethyl-1-methyl-N-(pyridin-3-yl)-1H-imidazole-5-carboxamide] as the compound, how does the mortality at 25 µg/mL read?
A: 90 to 100%

Q: Which mortality at 25 µg/mL does the source give for CCN(C(=O)c1cnc(C2=NOC(CC)(CC)N2)n1C)c1cccnc1 [Ia-1-4-4, 2-(5,5-diethyl-4,5-dihydro-1,2,4-oxadiazol-3-yl)-N-ethyl-1-methyl-N-(pyridin-3-yl)-1H-imidazole-5-carboxamide] here?
A: 90 to 100%

Q: Which mortality at 25 µg/mL does the source give for CCN(C(=O)c1cnc(C2=NOC3(CCOCC3)N2)n1C)c1cccnc1 [Ia-1-4-10, N-ethyl-1-methyl-N-(pyridin-3-yl)-2-(1,8-dioxa-2,4-diazaspiro[4.5]dec-2-en-3-yl)-1H-imidazole-5-carboxamide] here?
A: 90 to 100%

Q: For CCN(C(=O)c1cnc(C2=NOC3(CCOCC3)N2C(=O)C2CC2)n1C)c1cccnc1 [Ia-1-4-12, 2-(4-(cyclopropanecarbonyl)-1,8-dioxa-2,4-diazaspiro[4.5]dec-2-en-3-yl)-N-ethyl-1-methyl-N-(pyridin-3-yl)-1H-imidazole-5-carboxamide], which mortality at 25 µg/mL is on record?
A: 90 to 100%

Q: CCN(C(=O)c1cnc(C2=NOC3(CCC(C(F)(F)F)CC3)N2C)n1C)c1cccnc1 (centres unmarked) [Ia-1-4-25, N-ethyl-1-methyl-2-(4-methyl-8-(trifluoromethyl)-1-oxa-2,4-diazaspiro[4.5]dec-2-en-3-yl)-N-(pyridin-3-yl)-1H-imidazole-5-carboxamide] was tested. Which mortality at 25 µg/mL did it give?
A: 90 to 100%

Q: Which mortality at 25 µg/mL does the source give for CCN(C(=O)c1cnc(C2=NOC(c3ccccc3F)N2)n1C)c1cccnc1 (centres unmarked) [Ia-1-4-33, N-ethyl-2-(5-(2-fluorophenyl)-4,5-dihydro-1,2,4-oxadiazol-3-yl)-1-methyl-N-(pyridin-3-yl)-1H-imidazole-5-carboxamide] here?
A: 90 to 100%

Q: For CCN(C(=O)c1cnc(C2=NOC(c3cccnc3F)N2)n1C)c1cccnc1 (centres unmarked) [Ia-1-4-34, N-ethyl-2-(5-(2-fluoropyridin-3-yl)-4,5-dihydro-1,2,4-oxadiazol-3-yl)-1-methyl-N-(pyridin-3-yl)-1H-imidazole-5-carboxamide], which mortality at 25 µg/mL is on record?
A: 90 to 100%

Q: Which mortality at 25 µg/mL does the source give for CCN(C(=O)c1cnc(C2=NC(C)(C)ON2C)n1C)c1cccnc1 [Ia-1-5-1, N-ethyl-1-methyl-N-(pyridin-3-yl)-2-(2,5,5-trimethyl-2,5-dihydro-1,2,4-oxadiazol-3-yl)-1H-imidazole-5-carboxamide] here?
A: 90 to 100%

Q: For CCN(C(=O)c1cnc(C2=NC3(CCN(C(=O)OC(C)(C)C)CC3)ON2C)n1C)c1cccnc1 [Ia-1-5-3, tert-butyl 3-(5-(ethyl(pyridin-3-yl)carbamoyl)-1-methyl-1H-imidazole-2-yl)-2-methyl-1-oxa-2,4,8-triazaspiro[4.5]dec-3-en-8-carboxylate], which mortality at 25 µg/mL is on record?
A: 90 to 100%

Q: For CCN(C(=O)c1cnc(C2=NC(c3cccnc3F)ON2C)n1C)c1cccnc1 (centres unmarked) [Ia-1-5-9, N-ethyl-2-(5-(2-fluoropyridin-3-yl)-2-methyl-2,5-dihydro-1,2,4-oxadiazol-3-yl)-1-methyl-N-(pyridin-3-yl)-1H-imidazole-5-carboxamide], which mortality at 25 µg/mL is on record?
A: 90 to 100%
